Results taken from patent US20110105397A1, “METHOD FOR TREATING HEART FAILURE WITH STRESSCOPIN-LIKE PEPTIDES” (priority 2009, published 2011).

Tested on: anaesthetized mongrel dogs
Experiment: Hemodynamic, angiographic, echocardiographic profile in anaesthetized healthy dogs, IV bolus
Assay type: in vivo, dog
Procedure: The effects of h-SCP (SEQ ID NO: 1) on cardiovascular function were also assessed in anaesthetized mongrel dogs following intravenous bolus and 30-minute infusions. Hemodynamic and left ventricular systolic and diastolic function was evaluated using conventional hemodynamic, angiographic, echocardiographic, and radiographic methods with the results summarized in Table 16.

## H-TKFTLSLDVPTNIMNLLFNIAKAKNLRAQAAANAHLMAQI-NH2 [SEQ ID NO: 1, TKFTLSLDVPTNIMNLLFNIAKAKNLRAQAAANAHLMAQI-NH2]
IV bolus 0.13 μg/kg
  CO (Cardiac output): 2.19 L/min
  HR (Heart rate): 73 beats/min
  LV dP/dt (LV contractility): 1546 mmHg/sec
  LVEDA (LV end diastolic area): 12.9 cm^2
  LVEDV (LV end diastolic volume): 55 mL
  LVEF (LV ejection fraction): 55%
  LVESA (LV end systolic area): 6.9 cm^2
  LVESV (LV end systolic volume): 25 mL
  LVFAS (LV fractional area of shortening): 46%
  PSAP (Peak systolic aortic pressure): 92 mmHg
  SV (Stroke volume): 30 mL
IV bolus 0.13 μg/kg to 13.1 μg/kg
  increase in heart rate (largest change): 45%
IV bolus 1.3 μg/kg
  CO (Cardiac output): 2.56 L/min
  HR (Heart rate): 85 beats/min
  LV dP/dt (LV contractility): 1606 mmHg/sec
  LVEDA (LV end diastolic area): 12.7 cm^2
  LVEDV (LV end diastolic volume): 54 mL
  LVEF (LV ejection fraction): 57%
  LVESA (LV end systolic area): 6.5 cm^2
  LVESV (LV end systolic volume): 23 mL
  LVFAS (LV fractional area of shortening): 49%
  PSAP (Peak systolic aortic pressure): 91 mmHg
  SV (Stroke volume): 30 mL
IV bolus 2.6 μg/kg
  CO (Cardiac output): 2.72 L/min
  HR (Heart rate): 92 beats/min
  LV dP/dt (LV contractility): 1675 mmHg/sec
  LVEDA (LV end diastolic area): 12.5 cm^2
  LVEDV (LV end diastolic volume): 52 mL
  LVEF (LV ejection fraction): 57%
  LVESA (LV end systolic area): 6.2 cm^2
  LVESV (LV end systolic volume): 22 mL
  LVFAS (LV fractional area of shortening): 50%
  PSAP (Peak systolic aortic pressure): 90 mmHg
  SV (Stroke volume): 30 mL
IV bolus 4.4 μg/kg
  CO (Cardiac output): 2.80 L/min
  HR (Heart rate): 94 beats/min
  LV dP/dt (LV contractility): 1682 mmHg/sec
  LVEDA (LV end diastolic area): 12.4 cm^2
  LVEDV (LV end diastolic volume): 51 mL
  LVEF (LV ejection fraction): 58%
  LVESA (LV end systolic area): 6.0 cm^2
  LVESV (LV end systolic volume): 22 mL
  LVFAS (LV fractional area of shortening): 52%
  PSAP (Peak systolic aortic pressure): 90 mmHg
  SV (Stroke volume): 30 mL
IV bolus 13.1 μg/kg
  CO (Cardiac output): 2.86 L/min
  HR (Heart rate): 107 beats/min
  LV dP/dt (LV contractility): 1760 mmHg/sec
  LVEDA (LV end diastolic area): 11.4 cm^2
  LVEDV (LV end diastolic volume): 46 mL
  LVEF (LV ejection fraction): 60%
  LVESA (LV end systolic area): 5.2 cm^2
  LVESV (LV end systolic volume): 18 mL
  LVFAS (LV fractional area of shortening): 53%
  PSAP (Peak systolic aortic pressure): 88 mmHg
  SV (Stroke volume): 28 mL
